Experimental findings from US20240059689A1, “PURINE DERIVATIVES AS ANTICANCER AGENTS” (Tango Therapeutics, Inc., priority 2021, published 2024) are described below.

Bounds are passed on as bounds.

In experiment [1] the test system is monoubiquitinated PCNA. Briefly: AlphaLISA assay measuring monoubiquitinated PCNA in MDA-MB-436. It is filed as cell-based. The settings on record: Homo sapiens, MDA-MB-436, monoubiquitinated PCNA, read-out: Alpha Lisa IC50. The text has this: Table 1 also indicates IC50 values for exemplary compounds in an AlphaLISA assay measuring monoubiquitinated PCNA in a BRCA1 mutant cell line (MDA-MB-436; column 7).

In experiment [2] the test system is MDA-MB-436. The experiment can be described thus: Viability assay, BRCA1 mutant cell line MDA-MB-436. Type of experiment: cell-based. The settings on record: Homo sapiens, MDA-MB-436, viability, BRCA1 mutant MDA-MB-436; read-out: MDA-MB-436 rel IC50. The text has this:
(§1) Table 1 also indicates IC50 values in a viability assay for a non-isogenic pair of BRCA1 mutant (column 5-MDA-MB-436) and BRCA1 WT (column 6—HCC1954) cell lines. These values indicate the effect of treatment with compound on cell survival.

In experiment [3] the target is USP1-UAF1 (Homo sapiens, UniProt O94782). Briefly: Ubiquitin Rhodamine assay of USP1-UAF1 activity. It is filed as biochemical. The procedure: Certain compounds of the disclosure were assessed for USP1-UAF1 activity in a Ubiquitin Rhodamine assay as described in Biology Example 1.
Chain of USP1-UAF1 (O94782 whole entry): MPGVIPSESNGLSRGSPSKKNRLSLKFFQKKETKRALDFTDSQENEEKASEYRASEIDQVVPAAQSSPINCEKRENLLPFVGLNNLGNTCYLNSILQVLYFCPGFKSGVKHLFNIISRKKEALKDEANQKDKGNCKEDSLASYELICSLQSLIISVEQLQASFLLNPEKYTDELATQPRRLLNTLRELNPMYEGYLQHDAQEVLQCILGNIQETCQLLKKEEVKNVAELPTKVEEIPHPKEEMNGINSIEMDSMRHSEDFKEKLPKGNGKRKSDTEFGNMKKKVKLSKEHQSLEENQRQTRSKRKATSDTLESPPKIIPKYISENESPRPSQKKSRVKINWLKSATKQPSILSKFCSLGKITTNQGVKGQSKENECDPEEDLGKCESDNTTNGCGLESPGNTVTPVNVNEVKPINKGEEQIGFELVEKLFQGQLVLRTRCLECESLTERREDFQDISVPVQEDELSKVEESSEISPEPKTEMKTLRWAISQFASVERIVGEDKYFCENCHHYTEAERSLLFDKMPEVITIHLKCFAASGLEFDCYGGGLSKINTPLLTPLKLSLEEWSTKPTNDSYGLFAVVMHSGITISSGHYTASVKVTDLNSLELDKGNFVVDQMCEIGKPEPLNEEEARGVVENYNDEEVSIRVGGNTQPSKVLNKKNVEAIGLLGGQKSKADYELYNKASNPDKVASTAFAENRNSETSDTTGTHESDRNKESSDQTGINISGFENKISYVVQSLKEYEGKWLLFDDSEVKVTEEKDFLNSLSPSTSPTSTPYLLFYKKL
Chain of USP1-UAF1 (Q8TAF3 whole entry partner): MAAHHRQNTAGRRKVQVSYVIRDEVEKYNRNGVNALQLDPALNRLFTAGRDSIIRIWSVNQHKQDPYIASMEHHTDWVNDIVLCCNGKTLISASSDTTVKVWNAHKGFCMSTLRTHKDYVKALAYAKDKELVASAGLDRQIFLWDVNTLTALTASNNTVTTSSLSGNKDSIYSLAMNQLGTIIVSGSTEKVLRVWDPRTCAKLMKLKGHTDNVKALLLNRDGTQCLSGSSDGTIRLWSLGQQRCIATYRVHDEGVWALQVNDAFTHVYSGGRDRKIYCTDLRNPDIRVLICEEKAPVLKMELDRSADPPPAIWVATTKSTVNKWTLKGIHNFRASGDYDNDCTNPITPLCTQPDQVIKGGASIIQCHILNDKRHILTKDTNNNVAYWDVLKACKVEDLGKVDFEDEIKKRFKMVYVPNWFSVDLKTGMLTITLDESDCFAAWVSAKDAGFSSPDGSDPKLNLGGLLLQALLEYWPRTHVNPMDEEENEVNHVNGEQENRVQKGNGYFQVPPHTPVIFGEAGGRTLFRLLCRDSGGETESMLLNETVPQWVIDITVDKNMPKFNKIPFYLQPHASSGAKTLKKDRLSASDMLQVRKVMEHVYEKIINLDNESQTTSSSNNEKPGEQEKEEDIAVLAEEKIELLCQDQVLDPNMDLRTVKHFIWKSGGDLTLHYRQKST
Experiment [4] concerns HCC1954. The experiment can be described thus: Viability assay, BRCA1 WT cell line HCC1954. Type of experiment: cell-based. The settings on record: Homo sapiens, HCC1954, viability, read-out: HCC1954 rel IC50.
From the text: as §1

Turning to `COc1ncnc(C2CC2)c1-c1ncc2c(n1)n(Cc1ccc(-c3nc(C(F)(F)F)cn3C)cc1)c(=N)n2CC(F)(F)F` [Example T-095, 2-(4-cyclopropyl-6-methoxy-pyrimidin-5-yl)-9-[[4-[1-methyl-4-(trifluoromethyl)imidazol-2-yl]phenyl]methyl]-7-(2,2,2-trifluoroethyl)purin-8-imine], the IC50 in experiment [1] was below 100 nM; in experiment [2], below 100 nM; in experiment [3], 30 to 100 nM; in experiment [4] it was at least 10000 nM.
Consider `COc1ncccc1-c1ncc2c(n1)n(Cc1ccc(-c3nc(C(F)(F)F)cn3C)cc1)c(=N)n2CC(F)(F)F` [Example T-097, 2-(2-methoxy-3-pyridyl)-9-[[4-[1-methyl-4-(trifluoromethyl)imidazol-2-yl]phenyl]methyl]-7-(2,2,2-trifluoroethyl)purin-8-imine], for which the IC50 was 250 to 10000 nM in experiment [1], 100 to 250 nM in experiment [2], 30 to 100 nM in experiment [3] and at least 10000 nM in experiment [4].
Regarding `COc1ncnc(C2CC2)c1-c1ncc2c(n1)n(Cc1ccc(-n3nc(C(F)(F)F)cc3C)cc1)c(=N)n2CC(F)(F)F` [Example T-098, 2-(4-cyclopropyl-6-methoxy-pyrimidin-5-yl)-9-[[4-[5-methyl-3-(trifluoromethyl)pyrazol-1-yl]phenyl]methyl]-7-(2,2,2-trifluoroethyl)purin-8-imine], the half-maximal inhibitory concentration (IC50) is 100 to 250 nM in experiment [1], below 100 nM in experiment [2], 30 to 100 nM in experiment [3] and at least 10000 nM in experiment [4].
As for `CC(C)c1ccccc1-c1ncc2c(n1)n(Cc1ccc(-c3nc(C(F)(F)F)cn3C3CN(C)C3)cc1)c(=N)n2C` [Example T-099, 2-(2-isopropylphenyl)-7-methyl-9-(4-(1-(1-methylazetidin-3-yl)-4-(trifluoromethyl)-1H-imidazol-2-yl)benzyl)-7H-purin-8(9H)-imine], the IC50 in experiment [1] was 100 to 250 nM; in experiment [2], below 100 nM; in experiment [3] it was 100 to 10000 nM; in experiment [4] it was at least 10000 nM.
On the same counts, the results for `COc1ncnc(C2CC2)c1-c1ncc2c(n1)n(Cc1ccc(-n3nc(C(F)F)cc3OC)cc1)c(=N)n2CC(F)(F)F` [Example T-100, 2-(4-cyclopropyl-6-methoxy-pyrimidin-5-yl)-9-[[4-[3-(difluoromethyl)-5-methoxy-pyrazol-1-yl]phenyl]methyl]-7-(2,2,2-trifluoroethyl)purin-8-imine] are 100 to 250 nM, 100 to 250 nM, 100 to 10000 nM and at least 10000 nM.
Take `COc1nc(C)nc(C2CC2)c1-c1ncc2c(n1)n(Cc1ccc(-c3nc(C(F)(F)F)cn3C)cc1)c(=N)n2CC(F)(F)F` [Example T-102, 2-(4-cyclopropyl-6-methoxy-2-methyl-pyrimidin-5-yl)-9-[[4-[1-methyl-4-(trifluoromethyl)imidazol-2-yl]phenyl]methyl]-7-(2,2,2-trifluoroethyl)purin-8-imine]: the IC50 is 250 to 10000 nM in experiment [1], 100 to 250 nM in experiment [2], 100 to 10000 nM in experiment [3] and at least 10000 nM in experiment [4].
On the same counts, the results for `Cn1cc(C(F)(F)F)nc1-c1ccc(Cn2c(=N)n(C)c3cnc(-c4c(C5CC5)ncnc4C(F)(F)F)nc32)cc1` [Example T-103, 2-(4-cyclopropyl-6-(trifluoromethyl)pyrimidin-5-yl)-7-methyl-9-(4-(1-methyl-4-(trifluoromethyl)-1H-imidazol-2-yl)benzyl)-7H-purin-8(9H)-imine] are 100 to 250 nM, 100 to 250 nM, 30 to 100 nM and at least 10000 nM.
On the same counts, the results for `COc1ncnc(C2CC2)c1-c1ncc2c(n1)n(Cc1ccc(-c3nc(C(F)(F)F)oc3C)cc1)c(=N)n2CC(F)(F)F` [Example T-104, 2-(4-cyclopropyl-6-methoxy-pyrimidin-5-yl)-9-[[4-[5-methyl-2-(trifluoromethyl)oxazol-4-yl]phenyl]methyl]-7-(2,2,2-trifluoroethyl)purin-8-imine] are 250 to 10000 nM, 100 to 250 nM, 100 to 10000 nM and at least 10000 nM.
In the case of `[2H]C([2H])([2H])Oc1ncnc(C2CC2)c1-c1ncc2c(n1)n(Cc1ccc(-c3nc(C(F)(F)F)cn3C)c(CC)c1)c(=N)n2CC(F)(F)F` [Example T-105, 2-[4-cyclopropyl-6-(trideuteriomethoxy)pyrimidin-5-yl]-9-[[3-ethyl-4-[1-methyl-4-(trifluoromethyl)imidazol-2-yl]phenyl]methyl]-7-(2,2,2-trifluoroethyl)purin-8-imine], the IC50 is 250 to 10000 nM in experiment [1], 250 to 10000 nM in experiment [2], 100 to 10000 nM in experiment [3] and at least 10000 nM in experiment [4].
Consider `CCn1cc(C(F)(F)F)nc1-c1ccc([C@@H](C)n2c(=N)n(CC(F)(F)F)c3cnc(-c4c(OC)ncnc4C4CC4)nc32)cc1` [Example T-106, (R)-2-(4-cyclopropyl-6-methoxypyrimidin-5-yl)-9-(1-(4-(1-ethyl-4-(trifluoromethyl)-1H-imidazol-2-yl)phenyl)ethyl)-7-(2,2,2-trifluoroethyl)-7H-purin-8(9H)-imine], for which the IC50 in experiment [1] is below 100 nM; in experiment [2] it was below 100 nM; in experiment [3], below 30 nM; in experiment [4], at least 10000 nM.
Consider `COc1ncnc(C2CC2)c1-c1ncc2c(n1)n(Cc1ccc(-c3nc(C(F)(F)F)cn3C)c(C)c1)c(=N)n2CC(F)(F)F` [Example T-107, 2-(4-cyclopropyl-6-methoxy-pyrimidin-5-yl)-9-[[3-methyl-4-[1-methyl-4-(trifluoromethyl)imidazol-2-yl]phenyl]methyl]-7-(2,2,2-trifluoroethyl)purin-8-imine], for which the IC50 in experiment [1] is 100 to 250 nM; in experiment [2], 100 to 250 nM; in experiment [3], 100 to 10000 nM; in experiment [4] it was at least 10000 nM.
Regarding `COc1ncnc(C2CC2)c1-c1ncc2c(n1)n(Cc1ccc(-c3nc(C(F)(F)F)cn3C(C)C)cc1)c(=N)n2CC(F)(F)F` [Example T-108], the IC50 in experiment [1] is below 100 nM; in experiment [2] it was below 100 nM; in experiment [3], 30 to 100 nM; in experiment [4], at least 10000 nM.
As for `COc1ncnc(C2CC2)c1-c1ncc2c(n1)n([C@H](C)c1ccc(-n3nc(C(F)(F)F)cc3OC)cc1)c(=N)n2CC(F)(F)F` [Example T-109, 2-(4-cyclopropyl-6-methoxy-pyrimidin-5-yl)-9-[(1R)-1-[4-[5-methoxy-3-(trifluoromethyl)pyrazol-1-yl]phenyl]ethyl]-7-(2,2,2-trifluoroethyl)purin-8-imine], the half-inhibitory concentration (IC50) in experiment [1] is below 100 nM; in experiment [2] it was below 100 nM; in experiment [3] it was below 30 nM; in experiment [4] it was at least 10000 nM.
For `COc1ncnc(OC)c1-c1ncc2c(n1)n(Cc1ccc(-c3nc(C(F)(F)F)cn3C)cc1)c(=N)n2CC(F)(F)F` [Example T-110, 2-(4,6-dimethoxypyrimidin-5-yl)-9-[[4-[1-methyl-4-(trifluoromethyl)imidazol-2-yl]phenyl]methyl]-7-(2,2,2-trifluoroethyl)purin-8-imine], the IC50 is 250 to 10000 nM in experiment [1], 100 to 250 nM in experiment [2], 30 to 100 nM in experiment [3] and at least 10000 nM in experiment [4].
Regarding `COc1ncnc(C2CC2(F)F)c1-c1ncc2c(n1)n(Cc1ccc(-c3nc(C(F)(F)F)cn3C)cc1)c(=N)n2C` (stereo not shown) [Example T-111, 2-(4-(2,2-difluorocyclopropyl)-6-methoxypyrimidin-5-yl)-7-methyl-9-(4-(1-methyl-4-(trifluoromethyl)-1H-imidazol-2-yl)benzyl)-7H-purin-8(9H)-imine], the IC50 in experiment [1] was below 100 nM; in experiment [2] it was below 100 nM; in experiment [3], 30 to 100 nM; in experiment [4], at least 10000 nM.
Regarding `Cn1cc(C(F)(F)F)nc1-c1ccc(Cn2c(=N)n(CC(F)(F)F)c3cnc(-c4c(OC(F)(F)F)ccnc4C4CC4)nc32)cc1` [Example T-112, 2-[2-cyclopropyl-4-(trifluoromethoxy)-3-pyridyl]-9-[[4-[1-methyl-4-(trifluoromethyl)imidazol-2-yl]phenyl]methyl]-7-(2,2,2-trifluoroethyl)purin-8-imine], the 50% inhibitory concentration (IC50) in experiment [1] was 100 to 250 nM; in experiment [2], below 100 nM; in experiment [3], 30 to 100 nM; in experiment [4], at least 10000 nM.
On to `COc1ncnc(C2CC2)c1-c1ncc2c(n1)n(Cc1ccc(-n3nc(C(F)(F)F)cc3OC)cc1)c(=N)n2CC(F)F` [Example T-113, 2-(4-cyclopropyl-6-methoxy-pyrimidin-5-yl)-7-(2,2-difluoroethyl)-9-[[4-[5-methoxy-3-(trifluoromethyl)pyrazol-1-yl]phenyl]methyl]purin-8-imine], for which the IC50 in experiment [1] was below 100 nM; in experiment [2], below 100 nM; in experiment [3], below 30 nM; in experiment [4], at least 10000 nM.
As for `CCOc1cc(C(F)(F)F)nn1-c1ccc(Cn2c(=N)n(CC(F)(F)F)c3cnc(-c4c(OC)ncnc4C4CC4)nc32)cc1` [Example T-114], the IC50 in experiment [1] is below 100 nM; in experiment [2] it was below 100 nM; in experiment [3], 30 to 100 nM; in experiment [4], at least 10000 nM.
As for `Cc1ccnc(OC(F)F)c1-c1ncc2c(n1)n(Cc1ccc(-c3nc(C(F)(F)F)cn3C)cc1)c(=N)n2CC(F)(F)F` [Example T-115, 2-(2-(difluoromethoxy)-4-methylpyridin-3-yl)-9-(4-(1-methyl-4-(trifluoromethyl)-1H-imidazol-2-yl)benzyl)-7-(2,2,2-trifluoroethyl)-7H-purin-8(9H)-imine], the IC50 in experiment [1] fell in the range of 100 to 250 nM; in experiment [2], 100 to 250 nM; in experiment [3], 30 to 100 nM; in experiment [4], 250 to 10000 nM.
